Measured values taken from PMC8396878, “Ether Oxidation by an Evolved Fungal Heme-Peroxygenase: Insights into Substrate Recognition and Reactivity” (Journal of Fungi, 2021).

Experiments:
Format in all cases: biochemical
[1] = biological target: T1, unspecific peroxygenase (UPO) PaDa-I (Cyclocybe aegerita, UniProt B9W4V6, F354L/I291V/L110F/V100A/V118I); experiment: inhibition of catalase activity (O2 production, Clark electrode); substrate consumption by HPLC
T1 construct: gene APO1; laboratory-evolved variant PaDa-I, heterologously expressed and purified
T1 sequence (B9W4V6 44-371 V100A/L110F/V118I/I291V/F354L): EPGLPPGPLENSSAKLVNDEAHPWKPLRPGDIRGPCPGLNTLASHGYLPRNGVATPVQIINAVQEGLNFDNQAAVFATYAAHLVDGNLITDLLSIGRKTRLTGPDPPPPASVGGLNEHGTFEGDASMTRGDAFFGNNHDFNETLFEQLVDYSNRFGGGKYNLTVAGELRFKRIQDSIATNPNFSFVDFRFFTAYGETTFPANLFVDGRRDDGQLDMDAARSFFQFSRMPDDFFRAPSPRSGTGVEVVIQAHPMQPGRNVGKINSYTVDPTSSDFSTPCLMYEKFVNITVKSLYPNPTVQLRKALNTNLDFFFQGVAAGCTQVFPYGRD

[2] = biological target: T2, unspecific peroxygenase (UPO) PaDa-I (Cyclocybe aegerita, UniProt B9W4V6, V100A/L110F/V118I/I291V/F354L); experiment: colorimetric peroxygenation assay (4-nitrocatechol production), Michaelis-Menten plot
T2 construct: gene APO1; laboratory-evolved variant PaDa-I, heterologously expressed and purified
T2 sequence (B9W4V6 44-371 V100A/L110F/V118I/I291V/F354L): T1 sequence (B9W4V6 44-371 V100A/L110F/V118I/I291V/F354L)

[3] = biological target: T1, unspecific peroxygenase (UPO) PaDa-I; experiment: inhibition of NBD peroxygenation (Michaelis-Menten kinetics); also uncompetitive inhibition of ABTS peroxidation
[4] = biological target: T2, unspecific peroxygenase (UPO) PaDa-I; experiment: H2O2-dependent ether oxidation, total turnover number by HPLC

`OCCOCc1ccccc1` [2-(benzyloxy)ethanol] was tested, and the Ki [1] was 390 µM.

In the case of `O=[N+]([O-])c1ccc2c(c1)OCO2` [NBD, 5-nitro-1,3-benzodioxole], the “colorimetric peroxygenation assay (4-nitrocatechol production), Michaelis-Menten” value [2] is reported as “Michaelis–Menten plots for (A) NBD peroxygenation and (B) ABTS peroxidation in the presence of benzyloxyacetate”.

For `O=C(O)COCc1ccccc1` [benzyloxyacetate], the Ki [3] was 3.45 mM.

In the case of `c1ccc(COCc2ccccc2)cc1` [dibenzylether], the “H2O2-dependent ether oxidation, total turnover number by HPLC” value [4] is reported as “the more hydrophobic substrate (dibenzylether) was the most efficiently converted”.
